Measurements: patent publication US8546343B2, “Aminoglycoside antibiotics targeting bacterial 16S ribosomal RNA” (Eidgenoessische Technische Hochschule Zurich, priority 2007, dated 2013)
Converted amounts (≈) assume the structure as drawn.

Legend:
[1] = test system: AG019 E. faecalis JH2-2 (APH2″ AAC6′); assay: Standard MIC assay, AG019; type: cell-based, Enterococcus faecalis; conditions: for Minimal inhibitory concentrations AG019: E. faecalis JH2-2 (APH2″ AAC6′); for MIC: Enterococcus faecalis, read-out: Minimal inhibitory concentrations AG019
Protocol: (§1) Selected compounds of the present invention were tested for antibiotic susceptibility using clinical isolates of Staphylococci, Enterococci and Escherichia coli as well as strains carrying defined resistance determinants and compared to well known antibiotics of the state of the art. Drug susceptibility was determined in standard MIC assays, i.e. by determination of the minimal drug concentration required to inhibit bacterial growth in vitro.

AG016 S. aureus BM3002 = assay: Standard MIC assay, AG016; type: cell-based, Staphylococcus aureus; conditions: for MIC: Staphylococcus aureus, read-out: Minimal inhibitory concentrations AG016
Protocol: as §1

AG006 E. coli BM13 = assay: Standard MIC assay, AG006; type: cell-based, Escherichia coli
Protocol: as §1

[2] = test system: AG014 Staph. epi. clinical isolate; assay: Standard MIC assay, AG014; type: cell-based, Staphylococcus epidermidis; conditions: for MIC: Staphylococcus epidermidis, read-out: Minimal inhibitory concentrations AG014
Protocol: as §1

[3] = test system: M. smegmatis ΔrrnB 1491C (16S rRNA position 1491 C, eukaryotic mitochondrial ribosome); assay: MIC, recombinant M. smegmatis with mutant ribosomes 1491C; type: cell-based, Mycobacterium smegmatis; conditions: M. smegmatis ΔrrnB 1491C mutant ribosomes; 72 h at 37° C.
Excerpt: (§2) The strain used for introduction/selection of mutational alterations was a genetically modified derivative of Mycobacterium smegmatis carrying a single functional chromosomal rRNA operon (Sander et al. Mol. Microbiol. 1996, 22: 841-848). This strain, termed M. smegmatis rrn^−, allowed for the selection of mutational rRNA gene alterations using a plasmid carrying the rRNA gene with the respective mutational alteration.)
(§3) The rRNA gene carried on the plasmid encodes either the complete rRNA operon (Prammananan et al. Antimicrob. Agents Chemother. 1999, 43: 447-453) or a non-functional rRNA gene fragment of approximately 1.0 kb (Pfister et al. Antimicrob. Agents Chemother. 2003, 47: 1496-1502). PCR-mutagenesis in vitro was used to generate the mutagenized rRNA gene fragment. In the case of a partial rRNA gene fragment the mutagenized rRNA gene fragment was cloned into vectors pMV261 or pMV361 (Sander et al. Mol. Microbiol. 2002, 46: 1295-1304; Pfister et al. Antimicrob. Agents Chemother. 2003, 47: 1496-1502) to result in vectors carrying a partial rRNA gene fragment of approximately 1.0 kb with the mutational alteration introduced. In the case of plasmids carrying the complete rRNA operon the mutagenized rRNA gene fragment obtained by PCR was cloned into vectors pMV361 rRNA or pMV261 rRNA using appropriate restriction sites (Prammananan et al. Antimicrob. Agents Chemother. 1999, 43: 447-453). Vectors pMV361 rRNA and pMV261 rRNA carried a complete copy of the rRNA operon from M. smegmatis (Sander et al. Mol. Microbiol. 1997, 26: 469-480). Introduction of mutations into the plasmid encoded rRNA was confirmed by sequencing.
(§4) The single rRNA allelic derivative of M. smegmatis, i.e. M. smegmatis rrn, was used for transformation of the plasmids. The strain was made electro-competent and transformed according to standard techniques and as described previously (Sander et al. Mol. Microbiol. 1997, 26: 469-484). Following primary selection, the plasmid-encoded mutational rRNA gene alteration was transferred into the single chromosomal rRNA operon by means of RecA-mediated homologous recombination (Prammananan at al. Antimicrob. Agents Chemother. 1999, 43: 447-453). Introduction of the mutational rRNA gene alteration into the single functional chromosomal rRNA operon by gene conversion was confirmed by sequence determination.
(§5) Ribosomal drug susceptibility was studied by determining the minimal inhibitory concentrations, as described in detail in Pfister et al. 2003 and 2005 (see above).
(§6) The recombinants carrying the respective mutational alterations in the functional rRNA operon were colony-purified and subjected to determinations of minimal inhibitory concentrations (MIC) to determine ribosomal drug susceptibility. Cultures from single colonies were grown in LB medium supplemented with 0.05% Tween 80 and used for MIC tests in a microtiter plate format. Starting cultures contained 200 μl of bacterial cells at an optical density of 0.025 at 600 nm, and the respective drug was added in twofold series of dilution.
(§7) Key nucleotides which distinguish the prokaryotic from the eukaryotic decoding site are 16S rRNA positions 1408 (bacterial ribosome: A, eukaryotic cytosolic ribosomes: G) and 1491 (bacterial ribosomes: G, eukaryotic cytosolic ribosomes: A, eukaryotic mitochondrial ribosome: C).

[4] = test system: AG004 E. coli clinical isolate; assay: Standard MIC assay, AG004; type: cell-based, Escherichia coli
Protocol: as §1

[5] = test system: M. smegmatis ΔrrnB (bacterial ribosomes); assay: MIC, recombinant M. smegmatis with bacterial (wild-type) ribosomes; type: cell-based, Mycobacterium smegmatis; conditions: 72 h at 37° C.
Excerpt: as §2, §3, §4, §5, §6, §7

[6] = test system: AG015 S. aureus BM3002 (ANT4′); assay: Standard MIC assay, AG015; type: cell-based, Staphylococcus aureus; conditions: for Minimal inhibitory concentrations AG015: S. aureus BM3002 (ANT4′); for MIC: Staphylococcus aureus, read-out: Minimal inhibitory concentrations AG015
Protocol: as §1

[7] = test system: AG011 Staph. aureus clinical isolate; assay: Standard MIC assay, AG011; type: cell-based, Staphylococcus aureus; conditions: for MIC: Staphylococcus aureus, read-out: Minimal inhibitory concentrations AG011
Protocol: as §1

[8] = test system: M. smegmatis ΔrrnB 1491A (16S rRNA position 1491 A, eukaryotic cytosolic ribosomes); assay: MIC, recombinant M. smegmatis with mutant ribosomes 1491A; type: cell-based, Mycobacterium smegmatis; conditions: M. smegmatis ΔrrnB 1491A mutant ribosomes; 72 h at 37° C.
Excerpt: as §2, §3, §4, §5, §6, §7

[9] = test system: AG013 Staph. epi. clinical isolate; assay: Standard MIC assay, AG013; type: cell-based, Staphylococcus epidermidis; conditions: for MIC: Staphylococcus epidermidis, read-out: Minimal inhibitory concentrations AG013
Protocol: as §1

[10] = test system: M. smegmatis ΔrrnB 1408G (16S rRNA position 1408 G, eukaryotic cytosolic ribosomes); assay: MIC, recombinant M. smegmatis with mutant ribosomes 1408G; type: cell-based, Mycobacterium smegmatis; conditions: M. smegmatis ΔrrnB 1408G mutant ribosomes; 72 h at 37° C.
Excerpt: as §2, §3, §4, §5, §6, §7

[11] = test system: AG007 E. coli BM13 (AAC3); assay: Standard MIC assay, AG007; type: cell-based, Escherichia coli; conditions: for Minimal inhibitory concentrations AG007: E. coli BM13 (AAC3)
Protocol: as §1

[12] = test system: AG001 E. coli clinical isolate; assay: Standard MIC assay, AG001; type: cell-based, Escherichia coli
Protocol: as §1

AG017 E. faecalis JH2-2 = assay: Standard MIC assay, AG017; type: cell-based, Enterococcus faecalis; conditions: for MIC: Enterococcus faecalis, read-out: Minimal inhibitory concentrations AG017
Protocol: as §1

[13] = test system: AG008 E. coli BM13 (ANT2″); assay: Standard MIC assay, AG008; type: cell-based, Escherichia coli; conditions: E. coli BM13 (ANT2″)
Protocol: as §1

[14] = test system: AG009 E. coli BM13 AAC(6′)-1B; assay: Standard MIC assay, AG009; type: cell-based, Escherichia coli; conditions: for Minimal inhibitory concentrations AG009: E. coli BM13 AAC(6′)-1B
Protocol: as §1

[15] = test system: AG002 E. coli clinical isolate; assay: Standard MIC assay, AG002; type: cell-based, Escherichia coli; conditions: Escherichia coli, read-out: Minimal inhibitory concentrations AG002
Protocol: as §1

[16] = test system: AG003 E. coli clinical isolate; assay: Standard MIC assay, AG003; type: cell-based, Escherichia coli; conditions: Escherichia coli, read-out: Minimal inhibitory concentrations AG003
Protocol: as §1

| Compound | Minimal inhibitory concentrations AG019 [1] [µg/mL] | Minimal inhibitory concentrations AG016 (AG016 S. aureus BM3002) [µg/mL] | Minimal inhibitory concentrations AG006 (AG006 E. coli BM13) [µg/mL] | Minimal inhibitory concentrations AG014 [2] [µg/mL] | minimal inhibitory concentrations ΔrrnB 1491C [3] | Minimal inhibitory concentrations AG004 [4] [µg/mL] | minimal inhibitory concentrations ΔrrnB [5] [µg/mL] | Minimal inhibitory concentrations AG015 [6] [µg/mL] | Minimal inhibitory concentrations AG011 [7] [µg/mL] | minimal inhibitory concentrations ΔrrnB 1491A [8] [µg/mL] | Minimal inhibitory concentrations AG013 [9] [µg/mL] | minimal inhibitory concentrations ΔrrnB 1408G [10] [µg/mL] | Minimal inhibitory concentrations AG007 [11] [µg/mL] | Minimal inhibitory concentrations AG001 [12] [µg/mL] | Minimal inhibitory concentrations AG017 (AG017 E. faecalis JH2-2) [µg/mL] | Minimal inhibitory concentrations AG008 [13] [µg/mL] | Minimal inhibitory concentrations AG009 [14] [µg/mL] | MIC [1] [µg/mL] | MIC (AG016 S. aureus BM3002) [µg/mL] | MIC [2] [µg/mL] | further results |
| --- | --- | --- | --- | --- | --- | --- | --- | --- | --- | --- | --- | --- | --- | --- | --- | --- | --- | --- | --- | --- | --- |
| NC[C@@H]1O[C@H](O[C@H]2[C@@H](O)[C@H](O[C@@H]3[C@@H](O)[C@H](N)C[C@H](N)[C@H]3O[C@H]3O[C@@H]4CO[C@@H](c5ccc(Cl)cc5)O[C@H]4[C@H](O)[C@H]3N)O[C@@H]2CO)[C@H](N)[C@@H](O)[C@@H]1O [Compound 5.8, 4′,6′-O-p-Chlorobenzylideneparomomycin] | 64 (≈ 86.7 µM) | 8 (≈ 10.8 µM) | 64 (≈ 86.7 µM) | 8 to 16 | >512 µg/mL | 16 to 32 | 4 | 16 (≈ 21.7 µM) | 4 to 8 | >512 | 8 (≈ 10.8 µM) | >512 | 64 (≈ 86.7 µM) | 32 (≈ 43.3 µM) | 16 to 32 | 64 (≈ 86.7 µM) | 64 (≈ 86.7 µM) | – | – | – | – |
| NC[C@@H]1O[C@H](O[C@H]2[C@@H](O)[C@H](O[C@@H]3[C@@H](O)[C@H](N)C[C@H](N)[C@H]3O[C@H]3O[C@@H]4CO[C@@H](c5ccc6ccccc6c5)O[C@H]4[C@H](O)[C@H]3N)O[C@@H]2CO)[C@H](N)[C@@H](O)[C@@H]1O [Compound 5.20, 4′,6′-O-2-Naphthylideneparomomycin] | 8 to 16 | 4 (≈ 5.31 µM) | 8 to 16 | 1 (≈ 1.33 µM) | 512 µg/mL | 8 (≈ 10.6 µM) | 2 to 4 | 8 to 16 | 1 to 2 | 512 | 1 (≈ 1.33 µM) | >512 | 16 to 32 | 8 (≈ 10.6 µM) | 8 to 16 | 16 (≈ 21.2 µM) | 16 to 32 | – | – | – | – |
| NC[C@@H]1O[C@H](O[C@H]2[C@@H](O)[C@H](O[C@@H]3[C@@H](O)[C@H](N)C[C@H](N)[C@H]3O[C@H]3O[C@H](CN)[C@@H](O)[C@H](O)[C@H]3N)O[C@@H]2CO)[C@H](N)[C@@H](O)[C@@H]1O [Neomycin B, reference compound] | – | – | – | – | 16 to 32 µg/mL | – | 0.5 to 1 | – | – | 4 | – | >512 | – | – | – | – | – | – | – | – | – |
| NC[C@@H]1O[C@H](O[C@H]2[C@@H](O)[C@H](O[C@@H]3[C@@H](O)[C@H](N)C[C@H](N)[C@H]3O[C@H]3O[C@H](CO)[C@@H](O)[C@H](O)[C@H]3N)O[C@@H]2CO)[C@H](N)[C@@H](O)[C@@H]1O [Paromomycin, paromomycin, reference compound] | – | – | – | – | ≧512 μg/ml | – | 1 | – | – | 64 | – | 64 | – | – | – | – | – | > 256 | 2 to 4 (≈ 3.25 to 6.5 µM) | ≥ 256 | MIC [6]: > 256 µg/mL; MIC [7]: 8 µg/mL (≈ 13 µM); MIC [9]: ≥ 256 µg/mL; MIC (AG017 E. faecalis JH2-2): 128 to 256 µg/mL (≈ 208 to 416 µM) |
| NC[C@H]1O[C@H](O[C@H]2[C@H](O)[C@@H](O[C@H]3O[C@H](CO)[C@@H](O)[C@H](N)[C@H]3O)[C@H](N)C[C@@H]2N)[C@H](N)C[C@@H]1O [Tobramycin, reference compound] | – | – | – | – | – | – | – | – | – | – | – | – | – | – | – | – | – | > 256 | 0.5 to 1 (≈ 1.07 to 2.14 µM) | 256 (≈ 548 µM) | MIC (AG006 E. coli BM13; Escherichia coli, read-out: Minimal inhibitory concentrations AG006): 2 µg/mL (≈ 4.28 µM); MIC [15]: 4 µg/mL (≈ 8.56 µM); MIC ([4]; Escherichia coli, read-out: Minimal inhibitory concentrations AG004): 64 µg/mL (≈ 137 µM); MIC [6]: ≥ 256 µg/mL; MIC [7]: 8 µg/mL (≈ 17.1 µM); MIC [9]: ≥ 256 µg/mL; MIC ([11]; Escherichia coli, read-out: Minimal inhibitory concentrations AG007): 8 µg/mL (≈ 17.1 µM); MIC [16]: 32 µg/mL (≈ 68.4 µM); MIC ([12]; Escherichia coli, read-out: Minimal inhibitory concentrations AG001): 4 µg/mL (≈ 8.56 µM); MIC (AG017 E. faecalis JH2-2): 16 to 32 µg/mL (≈ 34.2 to 68.4 µM); MIC ([14]; Escherichia coli, read-out: Minimal inhibitory concentrations AG009): 128 to 256 µg/mL (≈ 274 to 548 µM) |
| Neomycin [reference compound] | >256 | 1 to 2 | – | 32 | – | – | – | 128 | 4 | – | 64 to 128 | – | – | – | 64 | – | – | – | – | – | – |
